This is an account of results in paper PMC4465272 (eNeuro, 2015).

In experiment [1] the test system is eEPSCs in the dorsal horn of rat spinal cord. The conditions noted are these: cited from earlier work.
The subject of experiment [2] is CaV current in rat sensory neurons (DRG). Put plainly: cells. Type of experiment: cell-based, rat (adult male Sprague Dawley).
Experiment [3] deals with human GABAB receptor. The conditions noted are these: cited from earlier work.
Experiment [4] deals with N-type CaV (CaV2.2) current in sensory neurons. The conditions noted are these: cited from earlier work.
Experiment [5] concerns GABAB receptors expressed in Xenopus laevis oocytes. The conditions noted are these: cited from earlier work.
In experiment [6] the test system is nAChRs subtypes containing the α3 subunit. The conditions noted are these: cited from earlier work.
Experiment [7] deals with animal pain models. The conditions noted are these: in vivo; cited from earlier work.
Experiment [8] deals with rat α9α10 nAChRs. Type of experiment: cell-based.
The subject of experiment [9] is α9α10 nAChRs. The conditions noted are these: cited from earlier work.

“Also recorded” adds a separate entry of the source.

For Vc1.1, in [1], the “effect on eEPSCs / EPSPs in dorsal horn” value is “does not affect excitatory neurotransmitter release; also recorded: no inhibition of EPSPs; also recorded: failed to affect”. Besides, in experiment [2], the “CaV current inhibition in the neuron with the largest Vc1.1 and RgIA response” value is on record as 41%; the “CaV current inhibition in the neuron with the largest baclofen response” value came out at 3.5%; the “average CaV current inhibition in neurons with baclofen responses of 20 − 24%” value is recorded as 4.3 ± 6.6%; the “enhancement of CaV current inhibition by BSA” value is given as “no enhancement of the CaV current inhibition was observed”. In experiment [2], the “inhibition of CaV current in example neuron” value is given as 40%, the “postpulse CaV current inhibition” value is 6.2 ± 12.5%, the “prepulse CaV current inhibition” value was found to be 6.5 ± 12.7% and the “recovery τ from CaV current block” value is 0.5 ± 0.2 min. In [2], the “reversibility of CaV current block” value is “readily reversible; also recorded: almost full recovery from inhibition” and the “voltage dependence of CaV current inhibition” value is recorded as “not voltage-dependent”. In experiment [2] (1 µM), the “average CaV current inhibition (as summarised in discussion)” value is recorded as 7%, the “average effect on CaV current (in words)” value is reported as “only minimal inhibition” and the “neurons responding with CaV current inhibition >10%” value was determined as 19%. The “effect on binding of [^3H]CGP-54626, a specific competitive antagonist” value in [3] is listed as “failed to block binding; also recorded: Neither Vc1.1 or RgIA were able to prevent the binding”. In experiment [4], the “GABAB dependence of N-type CaV current inhibition” value is recorded as “requires functional GABAB receptors”, the “reversibility of CaV current block” value is given as “irreversible” and the “sensory neurons with CaV current inhibited” value is roughly 75%. The “activation of GABAB receptors” value in experiment [5] is recorded as “do not activate GABAB receptors; also recorded: failed to activate GABAB receptors”. In experiment [6], the “antagonism of nAChRs containing the α3 subunit” value is “weakly antagonizes”. Besides, the “antinociceptive / analgesic effect” value in experiment [7] is listed as “antinociceptive effects”. In addition, the “block of ACh-induced current” value in experiment [8] was found to be 85 ± 13%. Besides, in experiment [9], the “antagonism of α9α10 nAChRs” value was “potent antagonists”.
